We go through one molecule from patent publication US20100166727A1, “S-Adenosylmethionine And Methylthioadensosine In Chemoprevention And Treatment Of Colon Polyps And Cancer” (UNIVERSITY OF SOUTHERN CALIFORNIA, priority 2007, published 2010).

The subject of data set [1] is MAT2A. The data set can be described thus: MAT2A expression in NCM460 cells. It is filed as cell-based, human. The note with it: 5 mM SAMe or 1 mM MTA, 6 hrs. How it is done:
(§1) Total RNA was isolated by the EZgeno total RNA isolation kit (Genemega, San Giego, Calif.), and subjected to reverse transcription (RT) by using M-MLV Reverse transcriptase (Invitrogen). 2 μl of RT product was subjected to quantitative real-time PCR analysis. The primers and TaqMan probes for MAT2A, MAT2β and Universal PCR Master Mix were purchased from ABI (Foster City, Calif.). Hypoxanthine phosphoribosyl-transferase 1 (HPRT1) and ubiquitin C (UBC) were used as housekeeping genes (48). The thermal profile consisted of 1 cycle at 95° C. for 15 minutes followed by 40 cycles at 95° C. for 15 seconds and at 60° C. for 1 minute. The expression of MAT2A and MAT2β was checked by normalizing the Ct of MAT2A and MAT2β to that of the control housekeeping gene (HPRT1 or UBC) (49). The delta Ct obtained was used to find the relative expression of MAT genes according to the formula: Relative expression=2·^ΔCt, where ΔCt=ΔCt of MAT genes in colon cancer or treated cells—ΔCt of MAT genes in normal colon or control cells.
NCM460 cell line was originally established in 1996 as the first non-malignant colonic epithelial cell line derived from the transverse colon (43). When first developed, cells formed both monolayer and in suspension, express villin and cytokeratin staining (43). […] The NCM460 cells in monolayer have features of transverse colon crypt cells (69). […]

Data set [2] relates to SPD syn. Put plainly: SPD syn expression by real-time PCR in HT-29 cells. The format is cell-based, human. The settings on record: 6 hrs.
Data set [3] can be described thus: Stability of SAMe and MTA in culture medium without cells and in water. The format is physicochemical. The note with it: culture medium at 37° C., linear regression. How it is done: FIG. 12. […] SAMe (A) and MTA (B) levels were measured in culture medium without cells with starting SAMe concentrations ranging from 1 to 5 mM and MTA concentration at 1 mM.
To test whether the mitogens-induce increase in. MAT2A is to provide increased SAMe necessary for polyamine synthesis in growing cells, SAMe and polyamine levels were measured following treatment of HT-29 cells with mitogens.

The subject of data set [4] is NCM460 cells. The data set can be described thus: Toxicity and apoptosis in NCM460 normal colonic epithelial cells. It is filed as cell-based, human. How it is done: In these experiments the total treatment duration was limited to 16 hrs to avoid the apoptotic effect. […] Apoptosis was measured by Hoechst staining or Annexin V and propidium iodide staining on flow cytometry.

Data set [5] relates to c-FLIP. Put plainly: c-FLIP mRNA level by real-time PCR in HT-29 cells. It is filed as cell-based, human. The note with it: SAMe 2 mM, MTA 1 mM, 6 hrs, mean±SE.
For data set [6], the system named is Bcl-xS. Put plainly: Bcl-xS mRNA level in HT-29 cells. It is filed as cell-based, human. The settings on record: 6 hrs. How it is done:
SAMe and MTA induce apoptosis in liver cancer cells by the mitochondrial pathway (14). […] In liver cancer cells, SAMe and MTA induced selectively expression of Bcl-xs, a pro-apoptotic protein (67). We examined whether the same occurs in HT-29 cells. After 6 hrs of MTA (1 mM) treatment, Bcl-xL mRNA level fell by 53% (47±4% of control, results are mean±SE from 4 experiments, p<0.0005). […] This makes these agents particularly attractive in targeting colon cancer cells.

Data set [7] deals with RKO cells. The data set can be described thus: TRAIL-induced apoptosis in RKO cells (Annexin V with FACS). The settings on record: 24 hours. It is filed as cell-based, human. How it is done:
FIG. 28. MTA sensitizes RKO cells to TRAIL-induced apoptosis. RKO cells were treated with 1 mM MTA, […] 5-FU, or 10 ng/ml TRAIL alone or in combination for 24 hours. Apoptosis was determined by Annexin V with FACS.

The subject of data set [8] is MAT2A. Put plainly: Intestinal MAT2A expression in mice given SAMe or MTA in drinking water. It is filed as in vivo. How it is done:
FIG. 30. Effects of oral SAMe and MTA on colonic mRNA levels of MAT2A, MAT2 β, and cFLIPL. Mice were fed SAMe (150 to 450 mg/kg/d) or MTA (75 or 150 mg/kg/d) in drinking water for 6 days. Colonic mucosa was scrapped off and gene expression measured by real-time PCR.
Three-month old male C57/B6 mice were fed ad libitum a standard diet (Harland Tekiad irradiated mouse diet 7912, Madison, Wis.), caged individually and had free access to water supplemented with SAMe ([…]), MTA (75 mg/kg/d), phosphate buffered saline (vehicle for SAMe) or DMSO (0.2%, vehicle for MTA) for 6 days. SAMe and MTA were made fresh daily. The amount of water intake, body weight, and animal behavior were closely monitored. After 6 days, animals were sacrificed, intestine was cut open along the longitudinal axis, and mucosa was stripped from the intestine (46). Mucosa was weighed and a portion processed for SAMe measurement as described below, the rest snap frozen for subsequent RNA extraction.
as §1

In data set [9] the test system is cFLIPL. Put plainly: Colonic cFLIPL mRNA in mice fed SAMe or MTA. The format is in vivo. The note with it: oral, 6 days. How it is done:
FIG. 30. Effects of oral SAMe and MTA on colonic mRNA levels of MAT2A, MAT2 β, and […]. Mice were fed SAMe (150 to 450 mg/kg/d) or MTA (75 or 150 mg/kg/d) in drinking water for 6 days. Colonic mucosa was scrapped off and gene expression measured by real-time PCR.

[10] abbreviates: 75 mg/kg/d in drinking water, six days.
Where [11] appears, read: 150 mg/kg/d in drinking water, six days.

As to `C[S+](CC[C@H](N)C(=O)O)C[C@H]1O[C@@H](n2cnc3c(N)ncnc32)[C@H](O)[C@@H]1O` (stereo partly drawn) [SAMe, S-adenosylmethionine], in data set [1], the “reduction of MAT2A expression” value is on record as 40%. The SPD syn expression in [2] (SAMe 2 mM) was 1.1 ± 0.02 fold of control; in data set [2] (SAMe 5 mM), 0.8 ± 0.02 fold of control. Moreover, in data set [3], the “rate of conversion from SAMe to MTA” value is reported as 0.013 mM per hour per mM SAMe. Besides, in [4], the “menadione (MQ)-induced toxicity in NCM460 cells” value is on record as “protected against menadione (MQ)-induced toxicity”. In data set [5], the “c-FLIP mRNA level” value is on record as 70±2 % of control. The “Bcl-xS mRNA level” value in data set [6] is recorded as “no effect on Bcl-xS mRNA level”. Besides, the TRAIL-induced apoptosis result in data set [7] is listed as “sensitized RKO cells to TRAIL-induced apoptosis”. For the same molecule, the “MAT2A expression, colon” value is recorded as 128 ± 20 % of control MAT2A mRNA levels in data set [8] (setting [10]) and 85 ± 10 % of control MAT2A mRNA levels in [8] (setting [11]). Further, the entries for the “MAT2A expression, proximal small intestine” value in data set [8] (setting [10]) and in [8] (setting [11]) were 99 ± 2 % of control MAT2A mRNA levels and 81 ± 4 % of control MAT2A mRNA levels, respectively. For the same molecule, the “decrease of MAT2A expression in proximal small intestine” value in data set [8] (SAMe 150 mg/kg/d, MTA 75 mg/kg/d, six days) amounted to 20%. Moreover, the “inhibition in colonic MAT2A mRNA level” value in data set [8] (SAMe 450 mg/kg/d (highest dose), 6 days) is 75%. The cFLIPL expression entry in [9] is given as “inhibited cFLIPL expression”.
